Reference: article PMC9814530, “Rapid de novo discovery of peptidomimetic affinity reagents for human angiotensin converting enzyme 2” (Communications Chemistry, 2022)
Entries after “also recorded” stand apart in the source; their conditions may differ. Where a SMILES comes first, the peptide text is derived from it. [ ]: non-standard residue; d: D form. Phe(3,4-F2) = N[C@@H](Cc1ccc(F)c(F)c1)C(=O)O; Ala(4-thiazolyl) = N[C@@H](Cc1cscn1)C(=O)O; Phe(4-NH2) = Nc1ccc(C[C@H](N)C(=O)O)cc1; Met(O2) = CS(=O)(=O)CC[C@H](N)C(=O)O; Ala(cPr) = N[C@@H](CC1CC1)C(=O)O; Cha = N[C@@H](CC1CCCCC1)C(=O)O; β3hS = N[C@@H](CO)CC(=O)O; Orn = NCCC[C@H](N)C(=O)O

Assays:
ACE2 [1] = target: T1, ACE2 (Homo sapiens, UniProt Q9BYF1); assay: Bio-layer interferometry (BLI) binding of immobilized biotinylated peptides to ACE2; conditions: 500 nM of ACE2
Procedure: (§1) Peptide binding validation was carried out using the ForteBio Octet RED96 system. The chamber temperature was kept constant at 30 °C with a plate agitation speed at 1000 rpm. Briefly, streptavidin (SA)-coated biosensor tips were dipped into 200 μL of 1.0–2.0 μM biotinylated peptide solution (in a kinetic buffer (K.B.): 1 × PBS with 0.1% BSA and 0.02% Tween-20) for peptides immobilization. Once loaded with peptides, the tips were then moved into solutions containing various concentrations (1000, 500, 250, 125, and 62.5 nM) of recombinant ACE2 protein (purchased from Sino Biological, Catalog number 10108-H08H) in the K.B. to obtain the association curve. After the 180 s association step, the tips were moved back into the K.B. to obtain the dissociation curve. Buffer-only and protein-only conditions (concentration at 1000 nM) were used as references for background subtraction. The association and dissociation curves were fitted with the ForteBio Biosystems Data Analysis Software under 5 experimental conditions (n = 5, global fitting algorithm, binding model 1:1) to calculate the apparent dissociation constant (KD).
Supplementary Note 4: Binding affinity measurements
4.1 BLI raw binding data of noncanonical peptides […]
affinity was reported using the kinetic fitting results ( KD is calculated by divide the […]
off rate by on rate). […] The ACE2
(§2) (1 picture or pasted object on this page, not shown here)
4.2 BLI raw binding data of canonical peptides
Supplementary Fig. 20. The BLI binding curve fitting (red lines) of ABP C1-C4 and ABP C7-C9 from Library 1 AS-MS against ACE2.
ACE2 concentration was 250 nM.

12ca5 = assay: BLI binding to an unrelated (off-target) protein
Procedure: as §1, with “(KD). […]” for “(KD).”
4.4 The binding of ABP noncanonical peptides to an unrelated protein
N6, and N8 to an unrelated protein, 12ca5, measured by BLI at concentration
as §2

ACE2 [2] = target: T1, ACE2; assay: ACE2 pulldown from human serum (SDS-PAGE); type: binding; conditions: biotinylated peptide on streptavidin magnetic beads, ACE2 in 5% normal human serum, 1.0 h 4 °C, 6 M urea elution
Procedure: After removing the supernatant and washing off the unbound fraction, the bound material was eluted with a high concentration of urea and analyzed using the sodium dodecyl sulfate–polyacrylamide gel electrophoresis (SDS-PAGE). […] Bound ACE2 was eluted for subsequent analysis. b The SDS-PAGE image with samples showing from left to right lanes: (1) molecular weight standard; (2) purified ACE2 protein (1.5 µg) as a loading control; (3) normal human serum as a control; (4) normal human serum mixed with ACE2 (1.5 µg); (5) elution of the bound fraction from the magnetic beads. NHS, Normal Human Serum (5%). Following a previous protocol, streptavidin-coated magnetic beads (100 µL, at 10 mg/mL) were pre-washed with blocking buffer (1 × PBS with 0.05% Tween-20, pH 7.4) and captured on a magnetic separation rack. The beads were then re-suspended in 1.0 mL of the same blocking buffer. […] After 30 min of incubation at 4 °C, the supernatant was removed and the beads were washed with 1 × PBS (3 × 1.0 mL) before incubation with the protein mixture. Soluble ACE2 (5 µL, 0.62 mg/mL) was mixed with 50 µL normal human serum in 1 × PBS (pH 7.4) to a final volume of 1.0 mL. The magnetic beads displaying immobilized ABP N1 were then added into the protein complex. […]

ACE2 [3] = target: T1, ACE2; assay: ELISA detection of ACE2 coated from 1 x PBS; type: binding; conditions: ACE2 in 1 x PBS 10 pM-100 nM coated; biotinylated peptide 100 nM; streptavidin-HRP, TMB, A450
Procedure: (§3) However, we observed a decreased detection sensitivity presumably due to the decreased amount of ACE2 being immobilized on the plate with many other serum proteins present. […] The plate was incubated with ABP N1 or control peptide, followed by streptavidin-HRP and TMB substrate. Absorbance was measured at 450 nm. The experiment was performed in technical triplicates (n = 3). Each data point, the mean signal as a bar, and error bars from experimental standard deviation, and statistical significance calculated with the unpaired Student’s t-test are shown. A serial dilution of soluble ACE2 was coated onto an ELISA plate (96-well format) overnight at 4 °C. The next day, the plate was blocked with 5% BSA in 1 × PBS supplement with 0.05% Tween-20 (PBST, pH 7.4) for 2–3 h at room temperature. […] Control groups are biotinylated peptide ABP N8 and PBST alone. The supernatant was then removed, and the wells were washed with PBST (3× 200 µL). Streptavidin-HRP conjugate in PBST (0.25 µg/mL, 100 µL) was added to each well and incubated for 30 min at room temperature. The plate was PBST-washed again (3 × 200 µL) before color development with 100 µL 1-Step™ Ultra TMB-ELISA Substrate Solution (Thermo Fisher, Catalog number 34028). After 10 min, the reaction was quenched with 2.0 M sulfuric acid (100 µL). Finally, the absorbance at 450 nm was measured on a microplate reader (BioTek) for all treated wells. […]

ACE2 [4] = target: T1, ACE2; assay: ELISA detection of ACE2 coated from a mixture with normal human serum; type: binding; conditions: plate coated with normal human serum and exogenous ACE2; biotinylated peptide 100 nM; streptavidin-HRP, TMB, A450
Procedure: as §3

ACE2 [5] = target: T1, ACE2; assay: BLI binding competition of known ACE2 binders (AngII, MLN-4760) on the ABP-ACE2 interaction; design: Soluble ACE2 (5 µL, 0.62 mg/mL) was mixed with 50 µL normal human serum; conditions: immobilized biotinylated peptide

T1 sequence (Q9BYF1 18-740 limits assumed): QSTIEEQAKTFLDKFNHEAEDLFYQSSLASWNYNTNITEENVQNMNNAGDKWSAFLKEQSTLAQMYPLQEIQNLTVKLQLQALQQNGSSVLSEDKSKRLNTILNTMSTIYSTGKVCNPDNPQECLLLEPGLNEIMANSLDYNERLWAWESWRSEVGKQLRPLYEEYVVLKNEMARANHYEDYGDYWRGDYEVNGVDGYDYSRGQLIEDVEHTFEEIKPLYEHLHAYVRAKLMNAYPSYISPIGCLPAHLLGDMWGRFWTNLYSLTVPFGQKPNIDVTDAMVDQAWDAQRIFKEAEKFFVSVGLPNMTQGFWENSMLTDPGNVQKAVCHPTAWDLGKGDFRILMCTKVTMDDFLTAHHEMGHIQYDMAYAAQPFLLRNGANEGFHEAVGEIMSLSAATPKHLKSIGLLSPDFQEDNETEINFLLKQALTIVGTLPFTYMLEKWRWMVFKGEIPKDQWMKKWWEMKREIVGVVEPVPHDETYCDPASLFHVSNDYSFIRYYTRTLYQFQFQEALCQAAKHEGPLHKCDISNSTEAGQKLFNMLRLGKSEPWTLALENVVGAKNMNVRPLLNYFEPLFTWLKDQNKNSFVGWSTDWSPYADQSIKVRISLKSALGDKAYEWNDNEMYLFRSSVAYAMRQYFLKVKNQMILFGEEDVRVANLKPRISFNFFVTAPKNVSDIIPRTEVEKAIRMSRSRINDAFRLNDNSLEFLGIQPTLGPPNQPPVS

CS(=O)(=O)CC[C@H](NC(=O)[C@H](CC1CCCCC1)NC(=O)[C@H](Cc1cscn1)NC(=O)C[C@H](CO)NC(=O)[C@H](CCCN)NC(=O)[C@H](CCC(N)=O)NC(=O)[C@H](CCCN)NC(=O)[C@H](Cc1ccc(F)c(F)c1)NC(=O)[C@H](Cc1cscn1)NC(=O)[C@@H](N)CC1CC1)C(=O)NCC(=O)N[C@@H](Cc1ccc(N)cc1)C(=O)N[C@@H](CCCCN)C(N)=O [ABP N1] (H-[Ala(cPr)][Ala(4-thiazolyl)][Phe(3,4-F2)][Orn]Q[Orn][β3hS][Ala(4-thiazolyl)][Cha][Met(O2)]G[Phe(4-NH2)]K-NH2)
BLI response signal (ACE2 [1]): ~ 1.3 nm
higher signal for ACE2 than for 12ca5 (12ca5; 500 nM ACE2 versus 500 nM 12ca5, BLI): ~ 5 fold
BLI response signal (12ca5; 500 nM of the off-target protein (12ca5)): 0.25 nm
binding to unrelated protein 12ca5 (in words) (12ca5; BLI, 12ca5 at 500 nM): minimal binding; also recorded: No apparent binding
pull-down of ACE2 from human serum (ACE2 [2]): selective enrichment of ACE2 protein
ELISA detection of ACE2 (in words) (ACE2 [3]): picomolar concentration of ACE2 was detected
ELISA detection of ACE2 in human serum (in words) (ACE2 [4]): dose-dependent ACE2 detection
inhibition of ABP binding to ACE2 by AngII (ACE2 [5]; 500 nM ACE2 + 5 uM AngII (10-fold excess)): not inhibited
inhibition of ABP binding to ACE2 by MLN-4760 (ACE2 [5]; 500 nM ACE2 + 5 uM MLN-4760 (10-fold excess)): partially inhibited
